Test results taken from patent US10800741B2 (ANCUREALL PHARMACEUTICAL (SHANGHAI) CO., LTD., priority 2017, dated 2020).

Key:
Format in all cases: cell-based
[1] = tested on: RS4:11; experiment: In vitro growth inhibition of FLT3 wild type overexpressing cells RS4:11; settings: Homo sapiens, cells over expressing FLT3 wild-type
Description: (§1) Adherent cells were digested with 0.25% trypsin-EDTA (Gibco). Suspension culture cells were collected by centrifugation (1700 rpm, 3 minutes). The supernatant was discarded and the cells were counted. According to each cell growth cycle, different concentrations of cells were prepared (5˜10×10^4 cells per ml), and inoculated to 96-well plates (Corning), with 100 μl per well, and incubated overnight at 37° C., 5% CO2. The next day, the test compound was added to the cultured cells (2 wells in parallel). The final concentration of the solvent was less than 1/1,000. The cells were further cultured for 3 to 5 days and assayed by MTT.
(§2) The MTT test reagent was a Dojindo CCK8 kit and the Microplate Reader was a THERMO […] FC instrument.
(§3) The adherent cells were taken out from the cell culture medium, and immediately added to a freshly prepared complete medium containing 10% CCK8 (5% FBS), 100 ul per hole. The suspended cells were directly added to a CCK8 reagent until reaching a final concentration of 10% and cultured for 1 to 4 hours. When a dark yellow color could be observed in the solvent control wells, the absorbance value at OD450 nm was measured and the cell growth rate was calculated according to the following formula: Cell Growth Rate (%)=100×(T−T0)/(C−T0)
(§4) T=optical density of drug-treated cell wells−optical density of blank control wells; T0=optical density of cell wells before drug treatment−optical density of blank control wells; C=optical density of solvent control wells−optical density of blank control wells. […] The experiments were repeated 1 to 3 times and a statistical analysis of data was conducted.
(§5) The present compounds which has a high growth inhibition activity on tumor cells positive expressing FLT3-ITD were selected for the determination of IC50 concentration on FLT3 wild tyoverexpressing cells RS4:11 and FLT3 wild-type normal expressing cells Jurkat. The specific test method is the same as that of test example 1.

[2] = tested on: Jurkat; experiment: In vitro growth inhibition of FLT3 wild-type normal expressing cells Jurkat; settings: Homo sapiens, cells normally expressing FLT3 wild-type
Description: as §1, §2, §3, §4, §5

[3] = tested on: Hep G2; experiment: In vitro growth inhibition of Hep G2 cells; settings: Homo sapiens, HepG2, FGFR3+++, FGFR4 +++
Description: as §1, §2, §3, §4
(§6) Mutations in the FGFR1-4 gene often occur in different types of cancer patients. In order to test the growth inhibition activity of the present compound against tumor cells expressing different FGFR variants, tumor cell lines expressing representative FGFR1-4 were selected for further determining the activity of compounds 25, 66, 38 and 95 of the present invention. BGJ398, a selective inhibitor of FGFR1-4, was used as the control compound. The specific test method is the same as test example 1.

[4] = tested on: HCC1954; experiment: In vitro growth inhibition of PI3KCA amplified/mutant tumor cells HCC1954; settings: Homo sapiens; HCC1954; PI3KCA H1047R; HER2 amp; read-out: IC50 growth inhibition
Description: as §1, with “Suspension” for “Adherent cells were digested with 0.25% trypsin-EDTA (Gibco). Suspension”
The adherent cells were taken out from the cell culture medium, and immediately added to a freshly prepared complete medium containing 10% CCK8 (5% FBS), 100 ul per hole. The suspended cells were directly added to a CCK8 reagent until reaching a final concentration of 10% and cultured for 1 to 4 hours.
as §4

[5] = tested on: JIMT-1; experiment: In vitro growth inhibition of JIMT-1 cells; settings: Homo sapiens, FGFR1 amp, HER2 amp, PI3KCA C420R
Description: as §1, §2, §3, §4, §6

[6] = tested on: PLC/PRF/5; experiment: In vitro growth inhibition of PLC/PRF/5 cells; settings: Homo sapiens, FGFR3+++, FGFR4 +++
Description: as §1, §2, §3, §4, §6

[7] = tested on: human non-small cell lung cancer cell line NCI-H1299 (NRAS Q61K mutation); experiment: Growth inhibition in combination with MEK1/2 inhibitor Trametinib, NCI-H1299 (NRAS Q61K mutation); settings: 5 days
Description: Test Example 5 Synergistic Inhibition Effect of the Present Compounds in Combination with MEK1/2 Inhibitor on the Growth of RAS Mutant Tumor Cells In Vitro
The cell culture, drug treatment and MTT assay of human intestinal cancer cell line HCT116 (KRAS G13D mutation) and human non-small cell lung cancer cell line NCI-H1299 (NRAS Q61K mutation) were performed according to the method of test example 1. Cells were treated with the MEK1/2 inhibitor Trametinib at 25 nM, 2.5 nM and 0.25 nM alone or in combination with compound 66 or 125 of the present invention (5 days).

| IC50 [1] | IC50 [4] | SMILES | IC50 [2] | IC50 [3] | IC50 [5] | IC50 [6] | inhibition at 0.0078 µM ([7]; Homo sapiens, NCI-H1299, 120 h, compound 7.8 nM alone (solvent instead of Trametinib), read-out: cell growth inhibition (percentage)) | inhibition at 0.0156 µM ([7]; Homo sapiens, NCI-H1299, 120 h, compound 15.6 nM alone (solvent instead of Trametinib), read-out: cell growth inhibition (percentage)) | cell growth inhibition (percentage) ([7]; compound 7.8 nM + Trametinib 0.25 nM) | cell growth inhibition (percentage) ([7]; compound 7.8 nM + Trametinib 2.5 nM) | cell growth inhibition (percentage) ([7]; compound 7.8 nM + Trametinib 25 nM) | cell growth inhibition (percentage) ([7]; compound 15.6 nM + Trametinib 0.25 nM) | cell growth inhibition (percentage) ([7]; compound 15.6 nM + Trametinib 2.5 nM) | cell growth inhibition (percentage) ([7]; compound 15.6 nM + Trametinib 25 nM) |
| --- | --- | --- | --- | --- | --- | --- | --- | --- | --- | --- | --- | --- | --- | --- |
| 0.0658 µM | 0.0118 µM | COc1cc2nccc(Oc3ccc(NC(=O)Nc4cc(C(C)(C)C)nn4C)c(Cl)c3Cl)c2cc1C(N)=O [Compound 38, 4-{4-[3-(5-tert-butyl-2-methyl-2H-pyrazol-3-yl)-ureido]-2,3-dichloro-phenoxy}-7-methoxyquinolin-6-carboxamide] | 0.202 µM | 0.119 µM | 0.0191 µM | 0.00208 µM |  |  |  |  |  |  |  |  |
| 0.523 µM | 0.0375 µM | COCCOc1cc2nccc(Oc3ccc(NC(=O)Nc4cc(C(C)(C)C)n[nH]4)c(Cl)c3)c2cc1NC(C)=O [Compound 66, N-[4-{4-[3-(5-tert-butyl-2H-pyrazol-3-yl)-ureido]-3-chloro-phenoxy}-7-(2-methoxy-ethoxy)-quinolin-6-yl]-acetamide] | 0.462 µM | 0.0791 µM | 0.0196 µM | 0.00267 µM | 1.39% | 4.59% | 11.67% | 20.73% | 37.88% | 16.82% | 26.10% | 42.52% |
|  | 0.00994 µM | CN1CCN(CCCOc2cc3nccc(Oc4ccc(NC(=O)Nc5cc(C(C)(C)C)n[nH]5)c(Cl)c4Cl)c3cc2C(N)=O)CC1 [Compound 95] |  | 0.128 µM | 0.0206 µM | 0.00237 µM |  |  |  |  |  |  |  |  |
